Patent publication US9045650B2, “Polymer with salt groups and antifouling coating composition comprising said polymer” (AKZO NOBEL COATINGS INTERNATIONAL B.V., priority 2008, dated 2015)

Assay: Salt formation of monomeric salts analysed by spectroscopic methods (IR, 1H NMR) and observation on mixing
Assay type: physicochemical
Details: solid sample, ATR
Description: The monomeric salt was analysed using infra-red (IR) spectroscopy (solid sample analysis using Avatar 360 infra-red spectrometer with Golden Gate diamond ATR attachment).
In an effort to further illustrate the relationship between acid/base pKa and the stability of the resulting polymer, a series of monomeric salts was prepared and analysed by spectroscopic methods.
Each of the monomeric salts were prepared by mixing the constituent acid/base starting materials in methanol at a concentration of 1.968 M. Following the addition of the acid/base starting materials, the mixture was stirred at room temperature for 24 h. The monomeric salt was then isolated by evaporation of the solvent.
^1H NMR spectroscopy was carried out on a CDCl3 solution of the monomeric salt (0.0827 M). Peaks associated with resonances for both CH2 groups present in the DMAEMA moiety were seen to shift downfield in the spectrum of this sample when compared to the reference spectrum of the DMAEMA starting material (CH2—CH2—NMe2 δ 4.25 shifted to δ 4.6 and CH2—CH2—NMe2 δ 2.6 shifted to δ 3.5). […] This is attributed to the change in the chemical environment of the CH2 resonances as a result of the complete protonation of the neighbouring NMe2 moiety.

salt formation by IR spectroscopy	SMILES
incomplete salt formation	C=C(C)C(=O)NCCCN(C)C.CCCCCCCCCCCCCCCC(=O)O [Comparative Example A (monomeric salt)]
incomplete salt formation	C=C(C)C(=O)NCCCN(C)C.CCCCCC(=O)O [Comparative Example C]
